The text below walks through data of ChEMBL document CHEMBL2169878 (J Med Chem, 2012).

One data set concerns Liver. The data set can be described thus: Drug uptake in CD1 albino mouse liver at 50 mg/kg, po at 2 to 6 hrs. The format is ADME, organism-based. More on the design: dose 50 mg/kg, route oral. The note with it: in vivo.
The next data set relates to Plasmodium berghei. The data set can be described thus: Antimalarial activity against Plasmodium berghei ANKA expressing GFP infected in mouse assessed as mean survival days at 50 mg/kg, po administered QD for 3 days (reference value: 6 to 7 days). The format is functional.
A further data set deals with Heart. The data set is described as follows: Cardiotoxicity against Sprague-Dawley rat Langendorff perfused heart assessed as QT time interval at 0.1 uM by electrophysiological analysis (reference value: 73.01 4.52 ms). The format is toxicity, tissue-based.

`Clc1ccc(C(Nc2ccnc3cc(Cl)ccc23)c2ccc(CN3CCNCC3)cc2)cc1` (racemic): the Drug uptake entry with Liver is on record as “Active”. The MSD with Plasmodium berghei worked out at 29.6 days. The Time in the data set with Heart amounted to 74 ms.
